Where two headings read alike, the source gives them in different places. Starred links: 1 amine or outer side, 2 acyl side, 3 side chain; linkers in the order of their positions; H or OH if unused. Non-standard residues stand in square brackets, D forms with d. Residues, ends and D or L forms follow the SMILES beside them. *: point of attachment. γ4hIle = CC[C@H](C)[C@@H](CCC(=O)[*:2])N[*:1]; Benzoyl(3-CN,4-F) = N#Cc1cc(C(=O)*)ccc1F; Ava = NCCCCC(=O)O

Data set [1] concerns human prostate cancer PC-3. In words: Biodistribution of F-18 bombesin analogs in nude mice bearing human prostate cancer PC-3. The settings on record: for Blocking: protocol as above (100 μg unlabeled gastrin-releasing peptide co-injected).
Method: (§1) Nude mice bearing human prostate cancer PC-3 were injected with 100 μl radioactive peptide dissolved in PBS containing 135 kBq per animal. For blocking 100 μg unlabeled gastrin-releasing peptide was co-injected. One hour post injection the animals were sacrificed and organs dissected for counting in a gamma-counter. Values are expressed as percent of the injected dose per gram organ weight.
Data set [2] has as its system human prostate cancer PC-3. As to conditions: mouse, in vivo.
Method: as §1
The test system of a further data set is tumor. The settings on record: FIG. 5; versus tumor-tissue ratio of 18F-choline (FCH) and 18F-FB-Lys-BN.
A short description of data set [3]: Biodistribution of F-18 bombesin analogs in nude mice bearing human prostate cancer PC-3. The settings on record: nude, mouse, 135 kBq per animal, total radioactivity.
Method: as §1

In data set [1] (Table 1), “3-CF3,4-F-Benzoyl-Arg-Ava-Gln-Trp-Ala-Val-NMeGly-His-Sta-Leu-NH2 (RXQWAVGHXL; N-methyl; non-natural residues)” showed a Blocking above 70%. In data set [2], the “Panc. % ID/g” value turned out to be 1.42 % ID/g, the T/B was found to be 4.56 and the T/M was 25.3.

Consider “4F,3CN-Bnz-Arg-Ava-Gln-Trp-Ala-Val-NMeGly-His(3Me)-Sta-Leu-NH2 (RXQWAVGHXL; N-methyl; non-natural residues)”, for which the Blocking in data set [1] (Table 1) is 50-80%. In data set [2], the “Panc. % ID/g” value stood at 3.51 % ID/g, the T/B was found to be 2.57 and the T/M amounted to 16.77.

Take “3-CN,4-F-Benzoyl-Arg-Ava-Gln-Trp-Ala-Val-Gly-His(3Me)-Sta-Leu-NH2 (RXQWAVGHXL; non-natural residues)”: in data set [1] (Table 1), the Blocking is given as 30-90%. Further, in data set [2], the “Panc. % ID/g” value worked out at 4.16 % ID/g, the T/B amounted to 5.65 and the T/M stood at 13.84.

“3-CN,4-F-Benzoyl-Arg-Ava-Gln-Trp-Ala-Val-NMeGly-His-Sta-Leu-NH2 (RXQWAVGHXL; N-methyl; non-natural residues)”: the Blocking in data set [1] (Table 1) is 40-70%. Further, in data set [2], the “Panc. % ID/g” value came out at 1.3 % ID/g, the T/B came out at 6.82 and the T/M stood at 12.75.

Regarding `CC[C@H](C)[C@@H](CCC(=O)N[C@@H](CC(C)C)C(N)=O)NC(=O)[C@H](Cc1c[nH]cn1)NC(=O)CNC(=O)[C@@H](NC(=O)[C@H](C)NC(=O)[C@H](Cc1c[nH]c2ccccc12)NC(=O)[C@H](CCC(N)=O)NC(=O)CCCCNC(=O)c1ccc(F)c(C#N)c1)C(C)C` [3-CN,4-F-Bz-Ava-Gln-Trp-Ala-Val-Gly-His-FA01010-Leu-NH2] ({Benzoyl(3-CN,4-F)-Ava}-QWAVGH[γ4hIle]L-NH2), in the data set with tumor, the “tumor-tissue ratio relative to 18F-choline (FCH) and 18F-FB-Lys-BN” value was determined as 2.5 time higher. The molecule further returned a Blocking in data set [1] (Table 1) above 70%. In addition, the T/B in data set [1] (Table 1, tumor/blood ratio) stood at 21.03. In addition, the T/M in data set [1] (Table 1, tumor/muscle ratio) is recorded as 59.99. Further, the “specificity of targeting (blocking)” value in data set [1] (blocking values low in tumor, unchanged for the other tissue) was “specific”. In addition, in data set [1] (conclusion from biodistribution, 1 h), the accumulation in tumor result was “accumulates in tumor”. For the same molecule, the tissue uptake at 1 h in data set [3] (blood) was 0.05 ± 0.01 %ID/g; in data set [3] (kidneys), 0.24 ± 0.02 %ID/g; in data set [3] (liver), 0.35 ± 0.13 %ID/g; in data set [3] (muscle), 0.02 %ID/g; in data set [3] (pancreas), 0.34 ± 0.03 %ID/g; in data set [3] (tumor), 1 ± 0.01 %ID/g. In addition, the results for the tissue to tissue ratio at 1 h in data set [3] (tumor/blood) and in data set [3] (tumor/muscle) were 21 ± 11.9 and 60 ± 29.5, respectively.

A word on the tissue uptake: it is the percentage of the injected dose found per gram of tissue.

For the origin of these results see patent publication US20090317326A1, “RADIOFLUORINATION METHODS” (priority 2007, published 2009).
